Data taken from PMC8908507 (ACS Omega, 2022).
Entries after “also recorded” stand apart in the source; their conditions may differ.

What was measured:
MAO-A = molecular target: T1, MAO-A (Homo sapiens, UniProt P21397); assay: biochemical
T1 sequence (P21397 1-527): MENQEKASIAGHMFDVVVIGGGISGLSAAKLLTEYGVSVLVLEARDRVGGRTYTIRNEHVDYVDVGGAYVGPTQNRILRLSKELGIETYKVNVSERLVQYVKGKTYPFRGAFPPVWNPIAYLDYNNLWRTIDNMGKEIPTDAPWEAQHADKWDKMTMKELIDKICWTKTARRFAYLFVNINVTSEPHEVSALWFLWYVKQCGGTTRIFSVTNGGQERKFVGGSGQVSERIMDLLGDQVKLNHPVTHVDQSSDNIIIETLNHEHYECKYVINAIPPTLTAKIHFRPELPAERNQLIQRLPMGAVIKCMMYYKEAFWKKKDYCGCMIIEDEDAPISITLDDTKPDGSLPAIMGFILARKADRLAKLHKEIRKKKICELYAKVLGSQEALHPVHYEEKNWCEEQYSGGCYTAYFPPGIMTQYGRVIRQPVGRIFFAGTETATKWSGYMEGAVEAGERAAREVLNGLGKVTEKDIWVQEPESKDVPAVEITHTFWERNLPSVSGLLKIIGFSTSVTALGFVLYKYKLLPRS

Vero cells [1] = assay: Intracellular ROS assay in H2O2-treated Vero cells; type: cell-based, African green monkey; conditions: 24 h drug treatment, vs H2O2-treated control
BChE = BChE (Equus caballus, UniProt P81908); conditions: 10 μM
Vero cells [2] = assay: Cytotoxicity on Vero cells, MTT method; type: cell-based, African green monkey; conditions: 100 μg/mL, 24 h
[3] = Cytotoxicity on Vero cells, MTT method; type: cell-based, African green monkey; conditions: African green monkey, Vero cells (normal kidney epithelial cell line)
MAO-B [4] = molecular target: T2, MAO-B (Homo sapiens, UniProt P27338); assay: MAO-B enzyme kinetics, Lineweaver–Burk and secondary plots; type: biochemical
T2 sequence (P27338 1-520): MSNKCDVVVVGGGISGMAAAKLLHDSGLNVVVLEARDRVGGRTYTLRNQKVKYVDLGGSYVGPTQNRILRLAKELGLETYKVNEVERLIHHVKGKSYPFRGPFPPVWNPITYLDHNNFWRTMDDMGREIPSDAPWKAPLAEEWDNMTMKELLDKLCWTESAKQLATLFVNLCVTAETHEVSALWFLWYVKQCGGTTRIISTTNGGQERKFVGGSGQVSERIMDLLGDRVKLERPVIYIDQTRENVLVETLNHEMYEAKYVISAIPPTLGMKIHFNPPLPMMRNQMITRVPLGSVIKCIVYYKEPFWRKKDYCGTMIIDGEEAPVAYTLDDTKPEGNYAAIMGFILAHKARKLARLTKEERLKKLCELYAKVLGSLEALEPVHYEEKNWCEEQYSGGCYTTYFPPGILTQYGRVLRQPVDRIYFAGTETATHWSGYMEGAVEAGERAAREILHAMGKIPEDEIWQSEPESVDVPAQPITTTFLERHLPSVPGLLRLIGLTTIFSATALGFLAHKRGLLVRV

BACE1 = BACE1 (Homo sapiens, UniProt P56817); assay: biochemical; conditions: read-out: residual activity (%) BACE1
AChE = AChE (Electrophorus electricus, UniProt O42275); assay: AChE inhibition; conditions: 10 μM
MAO-B [5] = molecular target: T2, MAO-B; assay: MAO-B inhibition, recombinant enzyme, benzylamine substrate; type: biochemical
MAO-B [6] = molecular target: T2, MAO-B; assay: Reversibility of MAO-B inhibition by dialysis; type: biochemical
human MAO-B = conditions: read-out: IC50 human MAO-B; cited from earlier work

BACE1, sequence (P56817 46-501): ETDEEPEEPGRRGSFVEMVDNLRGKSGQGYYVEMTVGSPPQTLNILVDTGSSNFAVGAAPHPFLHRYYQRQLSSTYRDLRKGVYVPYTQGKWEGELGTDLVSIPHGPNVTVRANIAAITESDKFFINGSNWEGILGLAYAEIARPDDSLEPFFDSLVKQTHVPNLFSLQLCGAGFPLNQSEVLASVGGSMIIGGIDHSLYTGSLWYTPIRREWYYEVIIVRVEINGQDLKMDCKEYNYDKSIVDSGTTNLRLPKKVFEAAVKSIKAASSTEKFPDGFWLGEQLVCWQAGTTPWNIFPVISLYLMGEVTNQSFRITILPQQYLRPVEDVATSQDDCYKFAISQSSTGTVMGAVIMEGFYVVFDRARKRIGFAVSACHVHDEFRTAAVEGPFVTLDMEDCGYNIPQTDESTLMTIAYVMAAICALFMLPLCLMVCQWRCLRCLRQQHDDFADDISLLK
AChE, sequence (O42275 24-633): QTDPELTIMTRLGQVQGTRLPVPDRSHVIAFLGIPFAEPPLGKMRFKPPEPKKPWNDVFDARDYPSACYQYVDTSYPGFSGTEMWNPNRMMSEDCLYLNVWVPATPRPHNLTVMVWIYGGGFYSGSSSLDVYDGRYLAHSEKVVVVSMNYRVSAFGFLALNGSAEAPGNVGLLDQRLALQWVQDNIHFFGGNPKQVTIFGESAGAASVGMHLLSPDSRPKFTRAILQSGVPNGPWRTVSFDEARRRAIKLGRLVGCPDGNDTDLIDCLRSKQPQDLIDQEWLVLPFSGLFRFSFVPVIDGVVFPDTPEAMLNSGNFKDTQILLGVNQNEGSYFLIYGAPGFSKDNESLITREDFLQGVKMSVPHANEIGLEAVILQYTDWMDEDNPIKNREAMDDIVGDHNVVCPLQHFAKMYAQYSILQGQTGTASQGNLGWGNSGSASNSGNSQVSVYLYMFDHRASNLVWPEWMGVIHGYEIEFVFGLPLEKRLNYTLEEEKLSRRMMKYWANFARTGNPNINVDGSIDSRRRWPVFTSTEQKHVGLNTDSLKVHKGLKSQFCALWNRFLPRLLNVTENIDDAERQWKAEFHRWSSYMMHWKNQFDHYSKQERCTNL
BChE, sequence (P81908 whole entry): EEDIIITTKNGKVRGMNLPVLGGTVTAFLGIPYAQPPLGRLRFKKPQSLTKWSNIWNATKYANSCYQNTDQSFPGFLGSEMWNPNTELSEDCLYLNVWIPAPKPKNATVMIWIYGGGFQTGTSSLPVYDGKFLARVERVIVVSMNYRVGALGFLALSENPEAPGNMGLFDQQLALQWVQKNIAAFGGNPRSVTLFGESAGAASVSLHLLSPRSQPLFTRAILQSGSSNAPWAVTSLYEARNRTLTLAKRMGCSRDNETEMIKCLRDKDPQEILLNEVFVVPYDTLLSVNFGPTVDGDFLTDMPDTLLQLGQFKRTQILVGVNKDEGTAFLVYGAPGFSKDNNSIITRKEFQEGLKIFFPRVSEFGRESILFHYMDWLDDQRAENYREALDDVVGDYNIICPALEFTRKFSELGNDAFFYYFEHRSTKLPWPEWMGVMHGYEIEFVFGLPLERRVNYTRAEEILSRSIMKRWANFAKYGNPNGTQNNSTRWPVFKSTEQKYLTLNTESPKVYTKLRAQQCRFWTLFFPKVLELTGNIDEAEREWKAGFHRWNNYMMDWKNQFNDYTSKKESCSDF

COc1ccc(/C=C/C=C/C(=O)c2ccc(F)cc2)cc1 [MK12, (2E,4E)-1-(4-Fluorophenyl)-5-(4-methoxyphenyl)penta-2,4-dien-1-one]
IC50 (MAO-A): 5.7 ± 0.72 µM | remaining activity at 10 µM (MAO-A; read-out: residual activity (%) MAO-A): 40.9 ± 1.24% | intracellular ROS scavenging (Vero cells [1]): significant scavenging effect of reactive oxygen species; also recorded: significant ROS scavenging effect | residual activity (%) BChE (BChE): 94.6 ± 1.11% | toxicity by cellular morphology, phase-contrast microscopy (Vero cells [2]): most toxic of the four tested compounds | viability at 24 h, 40 μg/mL [3]: > 80% | Ki (MAO-B [4]): 3 ± 0.27 nM | inhibition type for MAO-B (MAO-B [4]; Lineweaver–Burk plots): competitive inhibitors | remaining activity at 10 µM (BACE1): 81.4 ± 1.03% | residual activity (%) AChE (AChE): 93.3 ± 0.73% | SI (MAO-B compared with MAO-A) (MAO-B [5]; IC50 (MAO-A)/IC50 (MAO-B)): 1780.5 | IC50 (MAO-B [5]; IC50 MAO-B): 3.22 ± 0.04 nM | remaining activity at 1 µM (MAO-B [5]; read-out: residual activity (%) MAO-B): -2.71% | times higher inhibitory activity than pargyline (MAO-B) (MAO-B [5]; vs reference irreversible MAO-B inhibitor pargyline): 44 times | times more potent than lazabemide (MAO-B) (MAO-B [5]; vs reference reversible MAO-B drug lazabemide): 34 times | relative MAO-B activity, dialyzed (AD) (MAO-B [6]; MK6/MK12 6.0 nM, lazabemide 0.22 μM, pargyline 0.28 μM, after dialysis): 74.7% | relative MAO-B activity, undialyzed (AU) (MAO-B [6]; MK6/MK12 6.0 nM, lazabemide 0.22 μM, pargyline 0.28 μM, preincubation 30 min): 33.4% | reversibility of MAO-B inhibition (MAO-B [6]; dialysis): reversible inhibitors

COc1ccc(C(=O)/C=C/C=C/c2ccc(Cl)cc2)c(O)c1 [(2E,4E)-5-(4-chlorophenyl)-1-(2-hydroxy-4-methoxyphenyl)penta-2,4-dien-1-one]
IC50 (human MAO-B): 4.51 nM

O=C(/C=C/C=C/c1ccc(Cl)cc1)c1ccc(O)cc1O [(2E,4E)-5-(4-chlorophenyl)-1-(2,4-dihydroxyphenyl)penta-2,4-dien-1-one]
IC50 (human MAO-B): 11.3 nM
